This is an account of results in patent publication US9885703B2, “Evaluation method and screening method for sphingosine-1-phosphate 1 (S1P1) receptor agonists” (MEIJI SEIKA PHARMA CO., LTD., priority 2013, dated 2018).

One data set concerns the target T1, S1P1 receptor (Homo sapiens, UniProt P21453).
T1 construct: expressed in transfected cells; host or cells: CHO cells
Put plainly: General S1P1 receptor agonist activity, CHO cells expressing S1P1 receptor (method of Experimental Example 1 of PTL 1). Type of data set: cell-based. The settings on record: method of PTL 1. An excerpt: As a general method for evaluating an S1P1 receptor agonist activity, there has been known a method which uses CHO cells expressing a S1P1 receptor, and the like to measure an agonist activity on the basis of binding to the receptor and a signal transduction activity through the binding (PTL 1).

Data set [1] has as its target T2, S1P1 receptor coupled to Gαi1 (Homo sapiens, UniProt P21453).
T2 construct: expressed in transfected cells; host or cells: HEK 293T cells
Description: Gα subtype-specific S1P1 receptor agonist activity (BRET, NPL 7), HEK 293T cells co-expressing S1P1 receptor, Gαi1, Gγ2 and Gβ1. Type of data set: cell-based. The settings on record: Gαi1 expressed. An excerpt: (§1) In the present invention, an agonist activity specific to a Gαi subtype can be measured, for example, according to the method described in the present Example 1 (2) (the method described in NPL 7). To be more specific, by allowing cells to express an S1P1 receptor and a particular Gα subtype together with Gγ2 and Gβ1, an agonist activity can be measured on the basis of a difference in percentage between the Gα protein and the Gβγ protein caused by an S1P1 receptor agonist.
(§2) Next, the Gα protein subtype-specific S1P1 receptor agonist activities were evaluated according to the method described in NPL 7. Note that the expression conditions followed the section of “Supplementary Methods” in NPL 7, and the measurement conditions followed the section of “Bioluminescence resonance energy transfer measurement.”
(§3) First, HEK 293T cells were allowed to co-express an S1P1 receptor, a particular Gα subtype (Gαi1, Gαi2, or Gαi3), Gγ2, and Gβ1. Then, on the basis of a difference in percentage between the Gα protein and the Gβγ protein caused by the endogenous agonist S1P, the agonist activity was measured.

The target in data set [2] is T3, S1P1 receptor coupled to Gαi2 (Homo sapiens, UniProt P21453).
T3 construct: expressed in transfected cells; host or cells: HEK 293T cells
Description: Gα subtype-specific S1P1 receptor agonist activity (BRET, NPL 7), HEK 293T cells co-expressing S1P1 receptor, Gαi2, Gγ2 and Gβ1. Type of data set: cell-based. The settings on record: Gαi2 expressed.
Excerpt: as §1, §2, §3
(BRET reads energy transfer from a luciferase to a nearby fluorophore.)

Data set [3] addresses T4, S1P1 receptor coupled to Gαi3 (Homo sapiens, UniProt P21453).
T4 construct: expressed in transfected cells; host or cells: HEK 293T cells
Put plainly: Gα subtype-specific S1P1 receptor agonist activity (BRET, NPL 7), HEK 293T cells co-expressing S1P1 receptor, Gαi3, Gγ2 and Gβ1. Type of data set: cell-based. The settings on record: Gαi3 expressed.
Excerpt: as §1, §2, §3

A further data set deals with S1P receptor. Conditions: reported generally, varies with evaluation method; read-out: 50% activation concentration (EC50 value) as an agonist activity against an S1P receptor; cited from earlier work.
In data set [4] the test system is number of lymphocytic cells in blood. Put plainly: Efficacy evaluation: number of lymphocytic cells in blood after oral administration. In kind it is in vivo. The settings on record: male SD rats; for ED50: Rattus norvegicus. Here is the method:
BAF312 or the compound B was orally administered to male SD rats at different doses. After 3, 6, and 24 hours, and the number of lymphocytic cells in blood was counted using a blood cell counter.

The next data set concerns complete AV block. Description: Cardiotoxicity evaluation: AV block in guinea pigs under anesthesia. In kind it is in vivo, male guinea pigs. The settings on record: anesthetized guinea pigs, 0.01 mg/kg by infusion for 10 minutes. Here is the method:
(§4) In this model, the guinea pigs used were highly responsive to an S1P1 receptor, and further the model was capable of reliable detection of S1P1 receptor-dependent cardiotoxicity under anesthesia. An electrocardiograph and a pacing device were attached to the male guinea pigs whose breathings were artificially controlled under anesthesia, and the drugs were administered.

The nature of data set [5]: Blood concentration in the guinea pig cardiotoxicity model. Type of data set: in vivo. The settings on record: male, whole blood, intravenous, guinea pigs, 0.01 mg/kg infusion for 10 minutes. Here is the method: as §4
In addition, the blood concentrations of BAF312 and the compound B when the administrations were completed were respectively 17 nM and 91 nM. The blood concentrations after 1 hour were respectively <4 nM and 27 nM.

Read-outs that look alike come from different tables or passages of the source.

T1 sequence (P21453 whole entry): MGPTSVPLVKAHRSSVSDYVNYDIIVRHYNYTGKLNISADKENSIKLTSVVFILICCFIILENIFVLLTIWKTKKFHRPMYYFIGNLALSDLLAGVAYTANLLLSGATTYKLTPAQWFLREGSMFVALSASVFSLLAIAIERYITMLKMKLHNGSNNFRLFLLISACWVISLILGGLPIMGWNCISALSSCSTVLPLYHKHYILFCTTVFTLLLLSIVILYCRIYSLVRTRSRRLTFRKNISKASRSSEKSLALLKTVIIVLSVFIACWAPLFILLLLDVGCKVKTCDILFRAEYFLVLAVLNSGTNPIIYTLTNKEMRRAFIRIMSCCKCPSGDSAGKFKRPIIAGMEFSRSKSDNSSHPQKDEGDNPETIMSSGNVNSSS
T2 sequence (P21453 whole entry): as above
T2 sequence (P63096 2-354 partner limits assumed): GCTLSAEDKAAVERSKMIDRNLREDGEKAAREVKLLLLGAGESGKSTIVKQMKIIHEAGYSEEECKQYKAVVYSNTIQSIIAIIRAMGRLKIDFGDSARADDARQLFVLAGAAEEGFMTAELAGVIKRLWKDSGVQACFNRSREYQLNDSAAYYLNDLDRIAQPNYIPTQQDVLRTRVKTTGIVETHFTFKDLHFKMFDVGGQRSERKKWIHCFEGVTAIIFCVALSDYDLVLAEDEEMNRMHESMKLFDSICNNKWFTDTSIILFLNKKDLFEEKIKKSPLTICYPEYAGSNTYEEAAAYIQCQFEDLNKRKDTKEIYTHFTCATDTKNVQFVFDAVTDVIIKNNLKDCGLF
T2 sequence (P62873 2-340 partner limits assumed): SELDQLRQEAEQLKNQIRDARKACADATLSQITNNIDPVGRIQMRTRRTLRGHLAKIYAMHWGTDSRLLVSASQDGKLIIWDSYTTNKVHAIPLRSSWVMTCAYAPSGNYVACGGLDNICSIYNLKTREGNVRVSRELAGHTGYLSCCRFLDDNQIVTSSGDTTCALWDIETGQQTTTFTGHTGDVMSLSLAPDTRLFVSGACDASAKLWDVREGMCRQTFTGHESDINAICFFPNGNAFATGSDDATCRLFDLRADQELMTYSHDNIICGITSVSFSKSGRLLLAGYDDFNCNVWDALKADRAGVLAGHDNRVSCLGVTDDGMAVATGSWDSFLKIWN
T2 sequence (P59768 2-68 partner limits assumed): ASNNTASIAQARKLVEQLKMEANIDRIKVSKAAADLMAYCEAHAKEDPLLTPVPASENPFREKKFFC
T3 sequence (P21453 whole entry): as the sequence (P21453 whole entry) above
T3 sequence (P04899 2-355 partner limits assumed): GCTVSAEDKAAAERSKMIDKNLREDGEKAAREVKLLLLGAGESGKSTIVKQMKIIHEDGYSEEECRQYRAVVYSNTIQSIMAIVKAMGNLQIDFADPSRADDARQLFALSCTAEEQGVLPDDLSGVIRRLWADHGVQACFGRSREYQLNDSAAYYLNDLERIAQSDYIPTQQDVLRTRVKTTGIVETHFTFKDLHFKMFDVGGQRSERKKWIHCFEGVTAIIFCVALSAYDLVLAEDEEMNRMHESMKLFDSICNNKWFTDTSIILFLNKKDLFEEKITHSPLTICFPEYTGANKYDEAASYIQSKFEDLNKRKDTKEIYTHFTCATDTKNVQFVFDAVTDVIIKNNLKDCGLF
T3 sequence (P62873 2-340 partner limits assumed): as the sequence (P62873 2-340 partner limits assumed) above
T3 sequence (P59768 2-68 partner limits assumed): as the sequence (P59768 2-68 partner limits assumed) above
T4 sequence (P21453 whole entry): as the sequence (P21453 whole entry) above
T4 sequence (P08754 2-354 partner limits assumed): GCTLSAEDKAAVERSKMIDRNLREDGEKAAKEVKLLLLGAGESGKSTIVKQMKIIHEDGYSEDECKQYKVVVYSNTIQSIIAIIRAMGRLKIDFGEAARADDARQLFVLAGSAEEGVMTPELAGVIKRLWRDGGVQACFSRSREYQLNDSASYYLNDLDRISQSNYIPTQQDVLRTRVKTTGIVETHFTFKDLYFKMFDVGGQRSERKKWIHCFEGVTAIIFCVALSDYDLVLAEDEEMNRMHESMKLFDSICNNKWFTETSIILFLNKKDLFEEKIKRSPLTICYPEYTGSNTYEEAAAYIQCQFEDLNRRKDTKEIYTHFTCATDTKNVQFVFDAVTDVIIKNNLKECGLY
T4 sequence (P62873 2-340 partner limits assumed): as the sequence (P62873 2-340 partner limits assumed) above
T4 sequence (P59768 2-68 partner limits assumed): as the sequence (P59768 2-68 partner limits assumed) above

Regarding `CCCCCCCCCCCCC/C=C/[C@@H](O)[C@@H](N)COP(=O)(O)O` [Compound S1P, sphingosine-1-phosphate], the EC50 at S1P1 receptor is 0.0064 µM; in data set [1] it was 0.261 µM; in data set [2], 0.0146 µM; in data set [3], 0.0084 µM; at S1P receptor, ~0.01 µM.
The ED50 is the midpoint of the dose-response relation. With `CCc1cc(/C(C)=N/OCc2ccc(C3CCCCC3)c(C(F)(F)F)c2)ccc1CN1CC(C(=O)O)C1` [BAF312, Siponimod], the EC50 on S1P1 receptor was found to be 0.003 µM; in data set [1], 0.122 µM; in data set [2], 0.081 µM; in data set [3] it was 0.027 µM. The ED50 in data set [4] (6 hours, read-out: dose for suppressing the number of lymphocytic cells by 50% (ED50) after 6 hours) is 0.1 mg/kg; in data set [4] (24 hours, read-out: dose for suppressing the number of lymphocytic cells by 50% (ED50) after 24 hours), > 1 mg/kg. The “effective blood concentration after 24 hours” value in data set [4] (24 hours, calculated) is > 208 nM. Moreover, in the data set on complete AV block (four cases), the “expression of complete AV block (cases)” value is given as “four out of four cases”. Besides, the “continuation of complete AV block” value in the data set with complete AV block (until 1 hour) is “continued in all the cases until 1 hour elapsed”. In addition, in data set [5] (after 1 hour), the concentration at 1 h is < 0.004 µM. Also, the concentration at 10 min in data set [5] (end of administration, read-out: blood concentration when the administration was completed) was found to be 0.017 µM.
